Assay: Human HepG2 cell viability assay in 384 well format
Type: toxicity, cell-based
Parameters: dose 125 nL, time 70.5 hour; cytotoxicity at 70.5 h: concentration not given beside the values
Conditions: HepG2 cells, read-out: Inhibition

Compound	cytotoxicity at 70.5 h
CC(=O)N1C[C@H]2C3(CCN(S(C)(=O)=O)CC3)CC[C@@]2(C(=O)N(C)C)C1	-8.99%
Cc1cnc(N2CCOC3(CCCN(C(=O)C(C)C)C3)C2)nc1 (stereo not given)	-3.83%
Cn1ccc(CN2CCCC23CCNCC3)n1	-5.64%
COCCN1C=NC2(CCC(C(=O)Nc3ccc(C)cc3)CC2)C1=O (stereo not given)	-3.77%
CCS(=O)(=O)N1CCC2(CC1)CC[C@@]1(C(=O)NC)CN(C(C)=O)C[C@@H]21	11%
CCS(=O)(=O)N1Cc2c(Cn3ccnc3)nn(C(C)C)c2C1	10.4%
CCOc1ncnc2c1CCN(S(=O)(=O)CC)CC2	14.3%
O=C(NC1CCc2[nH]c(=O)ccc2C1)C1CCOCC1 (stereo not given)	13.7%
CCOc1ncnc2c1CCN(S(=O)(=O)C1CC1)CC2	14%
CN(C)C(=O)COCC1C[C@@H]2OCCN(Cc3ccco3)[C@H]2C1 (stereo not given in full)	-15.5%
Cc1ccc(N2Cc3c(CN(C)C)nn(C)c3C2)nn1	-14.2%
OCCOCc1n[nH]c2c1CN(Cc1cccs1)C2	-2.23%
O=C(NCC1CC[C@@]2(CNCCOC2)O1)c1cccnc1 (stereo not given in full)	-2.12%
CCS(=O)(=O)N1CCc2ncnc(C)c2CC1	-1.43%
CNC(=O)[C@@H]1COC[C@H]2CN(C(=O)COc3ccccc3)C[C@H]21	-1.14%
CN(C)C(=O)CN1CCC2(C1)CN(CC1CCOCC1)C2	-2.25%
Cc1cccc(CN2C[C@@H]3OCCN(S(=O)(=O)N(C)C)[C@@H]3C2)n1	-6.13%
O=C(c1nc2c(s1)CCCN2C(=O)C1CC1)N1CCOCC1	-6.48%
c1ccc(-c2nnn3c2COC(CNCc2ccccn2)C3)cc1 (stereo not given)	-5.4%
CNC(=O)[C@@H]1COC[C@H]2CN(C(=O)c3ccc(C)c(F)c3)C[C@H]21	-6.14%
CNC(=O)[C@@H]1C[C@H]2CN(C(=O)c3ccccn3)C[C@H]2N1C(C)C	15.1%
O=c1cc(Cn2cncn2)nc2n1CCCN(Cc1ccsc1)C2	-11.7%
Cc1ccc(CN2CCCn3c(nc(Cn4ccnc4)cc3=O)C2)o1	-6.14%
O=C(N1CCOCC1)[C@@]12CCO[C@@H]1CCN(CC1CCC1)C2	-20.9%
O=C(N1CCOCC1)[C@@]12CCO[C@@H]1CCN(C1CCCC1)C2	-15.6%
O=C([C@@H]1CCO[C@@H]2CCN(CC3CC3)C[C@H]21)N1CCCCO1	42.7%
Cc1cccc(N2CCCC3(C2)CN(c2nncs2)CCO3)c1 (stereo not given)	16.1%

Compound	cytotoxicity at 70.5 h
Cc1cc(C(=O)N2CCn3cnc(COCC4CC4)c3C2)no1	0.0472%
O=C(c1cscn1)N1CCn2cnc(COCC3CC3)c2C1	-4.79%
Fc1cccc(N2CCOC3(CCCN(c4nncs4)C3)C2)c1 (stereo not given)	-2.67%
Cn1cc(C2CC3(CCN(C(=O)c4ccsc4)CC3)NC2=O)cn1 (stereo not given)	-0.304%
Cc1ncsc1CN1CC[C@H]2OCC[C@@]2(C(=O)N2CCCO2)C1	-2.27%
Cn1cccc1C(=O)N1C[C@@H]2COC[C@]2(CNS(C)(=O)=O)C1	-1.05%
CN(Cc1cn2c(n1)CN(C(=O)N(C)C)CC2)Cc1ccco1	-5.21%
CN(C)C(=O)N1CC[C@@H](O)[C@@H]1Cc1cnn(C)c1	-1.6%
Cc1occc1C(=O)N1CCn2cnc(COCC3CC3)c2C1	-0.838%
O=C([C@@H]1C[C@@H]2CCN(Cc3ccco3)C[C@H]2O1)N1CCCO1	-0.42%
Cc1ccoc1C(=O)N1CC(C(=O)N2CCOCC2)C2(CCOCC2)C1 (stereo not given)	15.4%
CCO[C@H]1CO[C@@]2(CCCN(C(=O)c3ccc(OC)c(F)c3)C2)C1	2.45%
CCC1=N[C@@]2(CC[C@@H]3CN(S(=O)(=O)CC)C[C@@H]32)C(=O)N1CC	-2.37%
CCC1=N[C@@]2(CC[C@@H]3CN(S(C)(=O)=O)C[C@@H]32)C(=O)N1CC(C)C	-1.52%
CCOC(=O)CN1CCC2(CC1)CC(NC(=O)c1ccccn1)CO2 (stereo not given)	-1.03%
Cc1ccsc1C(=O)N1CC(C(=O)N2CCCC2)C2(CCOCC2)C1 (stereo not given)	0.96%
CNC(=O)[C@@]12CCCN(c3ncccn3)[C@@H]1CN(c1ncc(C)cn1)C2	-4.37%
CN(C)Cc1nnc2n1CCCN(C(=O)c1c[nH]cn1)C2	-0.569%
CNC(=O)[C@@]12CCCN(c3ncccn3)[C@@H]1CN(c1ncc(F)cn1)C2	-0.144%
O=C(COc1ccccc1)N1CCC[C@]2(C[C@@H](OCC3CC3)CO2)C1	0.205%
CS(=O)(=O)CC(=O)NCC1OCCc2cn(CC3CC3)nc21 (stereo not given)	-1.93%
Cc1csc([C@H]2C[C@@H]3CCN(C(=O)c4cnccn4)C[C@H]3O2)n1	-3.11%
CO[C@@H]1CO[C@@]2(CCN(C(=O)COc3ccccc3C)C2)C1	-2.61%
CCOCC1CN(C(=O)COc2ccccc2)Cc2cn(C)nc21 (stereo not given)	-4%
Cn1ccc(CN2CCOCC23CCNCC3)n1	-6.05%
CCCN1CCCn2c(nc(CNC(=O)c3ccsc3)cc2=O)C1	-3.68%
COCC1CC2(CCN(C(C)=O)CC2)CN1Cc1csc(C)n1 (stereo not given)	-4.16%

Compound	cytotoxicity at 70.5 h
CCc1cnc(N2C[C@H]3CN(Cc4csc(C)n4)C(=O)[C@H]3C2)nc1	-8.61%
CCN1CCCC12CCN(C(=O)c1nccn1C)CC2	-7.36%
Cn1ccnc1C(=O)N1CCC2(CCN2CC2CC2)C1 (stereo not given)	9.69%
CS(=O)(=O)N1C[C@H]2CCCN(Cc3ccsc3)[C@H]2C1	13.4%
COCCN1CCCc2sc(C(=O)N3CCCN(C)CC3)nc21	11.7%
COCc1n[nH]c2c1CN(Cc1cccs1)C2	-6.13%
CC(C)CN1CC[C@@H]2[C@@H]1CCN2C(=O)N(C)C	-11.8%
CS(=O)(=O)N1C[C@H]2CCCN(Cc3cccs3)[C@H]2C1	6.54%
Cn1nc(Cn2ccnc2)c2c1CN(c1ncccn1)C2	-4.86%
CN1CCN(C(=O)c2nc3c(s2)CCCN3C(=O)C2CC2)CC1	-3.93%
CC(C)CN1CC[C@@H]2[C@@H]1CCN2C(=O)N1CCCC1	-3.86%
Cc1nnn2c1COC(CNCc1ccccn1)C2 (stereo not given)	-3.64%
CCCN1CCC2(CC1)COc1ccccc1S(=O)(=O)N(CC1CC1)C2	-4.67%
CC(C)NC(=O)N1CCN(CC2CC2)CC2(CNC(=O)C2)C1 (stereo not given)	-17.7%
O=C([C@@H]1CCO[C@@H]2CCN(Cc3ccc(F)cc3)C[C@H]21)N1CCCCO1	-24.4%
O=C(N1CCOCC1)[C@@]12CCO[C@@H]1CCN(C1CCOCC1)C2	-4.69%
O=C(N1CCOCC1)[C@@]12CCO[C@@H]1CCN(C1CCC1)C2	46%
O=C(N1CCOCC1)[C@@]12CCO[C@@H]1CCN(CC1CCCC1)C2	49.2%
Cc1cccc(CN2CCC3(CCCN(C(=O)c4ccoc4)C3)C2=O)n1 (stereo not given)	-3.14%
Cc1ccc(C(=O)N2CCn3cnc(COCC4CC4)c3C2)cn1	-5.4%
Cc1cccc(CN2CCC3(CCCN(C(=O)N(C)C)C3)C2=O)n1 (stereo not given)	-3.06%
COc1ccc(S(=O)(=O)N2Cc3c(CN(C)C)nn(C)c3C2)cc1	-3.13%
CN(Cc1cn2c(n1)CN(C(=O)c1ccc[nH]1)CC2)Cc1ccco1	0.342%
Cc1cccc(CN2CCC3(CCCN(C(=O)NC(C)C)C3)C2=O)n1 (stereo not given)	-5.48%
Cc1ncsc1CN1CC[C@H]2OCC[C@@]2(C(=O)N2CCOCC2)C1	-4.06%
CS(=O)(=O)N1CCOCC2(CN(Cc3nccs3)CCO2)C1 (stereo not given)	15.5%
Cc1ccc(CN2CC[C@H]3C[C@H](C(=O)N4CCCO4)O[C@@H]3C2)o1	1.31%

Compound	cytotoxicity at 70.5 h
Cn1ccnc1CN1CCC2(CC1)CN(c1ccccc1)C(=O)CO2	4.73%
COCC1CN(C(=O)c2ccco2)Cc2cn(C)nc21 (stereo not given)	3.61%
CNC(=O)[C@H]1C[C@H]2OCC[C@H]2N(Cc2ccc(F)cc2)C1	-4.52%
Cn1ccnc1CN1CCC2(CC1)CN(Cc1ccccc1)C(=O)CO2	-5.92%
COCCN1C(=O)CCC12CCN(c1ncc(F)cn1)CC2	-2.74%
CCCS(=O)(=O)N1C[C@@H](Oc2ccccn2)[C@H]2OCCC[C@H]21	-1.57%
O=C(NC1COC2(CCN(Cc3cccs3)CC2)C1)c1ccccn1 (stereo not given)	-2.35%
O=C1CCC2(CCN(c3ncc(F)cn3)CC2)N1Cc1ccncc1	7.51%
COCC1CN(C(=O)c2cccn2C)Cc2c1cnn2CC1CC1 (stereo not given)	-1.46%
CC(C)N1CCCn2c(nc(CNC(=O)c3nccn3C)cc2=O)C1	-17.1%
CN(C)[C@H]1COC[C@@H]2CN(Cc3ccc4c(c3)OCO4)C[C@@H]21	-3.62%
Cc1cnc(N2CCOC3(CCCN(CC(=O)N(C)C)C3)C2)nc1 (stereo not given)	-3.5%
CCOCC1CN(c2ccc(C)nn2)Cc2nn(CC)cc21 (stereo not given)	-7%
CN(C)C(=O)CN1CCC2(C1)CN(CC1CCOC1)C2 (stereo not given)	11.8%
CNC(=O)CNC1CC2(CCN(c3ncccn3)CC2)c2ccccc21 (stereo not given)	-9.1%
CNC(=O)[C@@H]1C[C@H]2CN(c3ncccn3)C[C@H]2N1C(C)C	-1.97%
CN(C)C(=O)CN1CCOCC2(CCN(CC3CCOCC3)CC2)C1	-7.63%
COc1ncccc1CN1C[C@@H]2COC[C@]2(COCC(=O)N(C)C)C1	-6.1%
Cc1ccc(C(=O)N2C[C@H]3CCC[C@@]3(COCc3ccncc3)C2)cn1	-7.42%
CN1CC(=O)N(c2cccc(F)c2)CC12CCN(Cc1ccsc1)C2 (stereo not given)	-5.22%
c1cc(CN2CCCC23CCCN(Cc2ccoc2)C3)ccn1 (stereo not given)	-3.1%
Cc1cccc(CN2CCn3cc(Cn4cccn4)nc3C2)n1	-12.9%
COc1ncccc1CN1C[C@@H]2COC[C@]2(COc2cccnc2)C1	-13.7%
CCN(CC)Cc1nc2c(o1)CN(C(=O)c1ccc3[nH]ccc3c1)C2	-17%

Reference: ChEMBL document CHEMBL3507680, “University of Dundee, Gates Library screen for HepG2 cell viability”
